The values below come from US4734399A, “Growth hormone releasing factor analogs” (Hoffmann-La Roche Inc., priority 1986, dated 1988).

Experiment [1] has as its system rat pituitary cells. Kind of experiment: Stimulation of growth hormone production in rat pituitary cells in tissue culture (RIA for rat growth hormone). The class given is cell-based. The conditions noted are these: for Potency Relative to GRF(1-44)-NH2: Exp. #GB 83, rat anterior pituitary cells, 4 hours of incubation, 0.8 to 200 fmol per ml, GH by RIA. The procedure: The assay for biological activity, which is based on the ability to stimulate production of growth hormone in rat pituitary cells in tissue culture, was performed as discribed in Example 2.
Pituitaries from 30-40 male Sprague-Dawley rats (175 g) were removed aseptically after decapitation. The anterior lobes were collected, washed 3 times in sterile Hepes buffer (0.025M) (pH 7.35) and dispersed at 37° C. in 20-30 ml Hepes buffer (pH 7.35) containing collagenase (4 mg per ml) and Dispase (Protease grade II, 2 mg per ml). After gentle 100-110 min vortexing and trituration by Pasteur pipette, the dispersed cells were separated by centrifugation (150×g, 4 min) and re-suspended in Hepes buffer containing neuraminidase ([…]), and 200 µg/ml ethylenediaminetetraacetic acid (EDTA) disodium salt, pH 7.35, for 10 min.
The cells were washed twice with plating medium and plated on multiwell-plates (1.5×10^5 cells per ml) using the following defined medium: F-12/DMEM/BGJ (6:3:1) (Gibco: 430-1700/430-1600/320-2591) with 2 g BSA/l., 2.38 g Hepes/1.50 mg PSN antibiotic mixture (Gibco Laboratories), 10 mg/l transferrin (Sigma T2252) with 1.83 g NaHCO3 /l (Baker 3506). The medium in each well was supplemented either with a sample of the novel GRF peptide or natural GRF(1-44)-NH2 at concentrations ranging from 0.8 to 200 fmol per ml of medium. Control wells contained no supplement. Plating was done with this medium added with 2% fetal calf serum to ensure rapid fixation of the cells.
On the fourth day, the cells were washed twice with the defined medium without fetal calf serum. Finally 900 μl of defined medium was added to each well plus 100 μl of the same medium containing each individual treatment, in triplicate. After 4 hours of incubation the medium was collected and diluted as required to conduct radioimmunoassay (RIAs) for rat growth hormone.
RIAs for rat growth hormone were conducted using Sinha's anti-murine GH immune serum and procedures according to the National Pituitary Agency using protein A to precipitate antibody antigen complex.

Experiment [2] relates to release of growth hormone. Particulars: in vitro; Rivier et al., Nature 300: 276 (1982); cited from earlier work.

On to GRF(1-29)-NH2 [GRF(1-29)NH2], for which the “Potency Relative to GRF(1-44)-NH2” value in experiment [1] worked out at 0.5. Also, in experiment [2], the “Intrinsic activity and potency on a weight for weight basis” value is “full intrinsic activity and potency”.
Take GRF(1-44)-NH2 [GRF(1-44)NH2]: in experiment [1], the “Potency Relative to GRF(1-44)-NH2” value turned out to be 1.0. In experiment [1] (vs natural GRF(1-44)-NH2 isolated from human pancreatic tumor (Salk Institute standard hGRF-NH2 (NL-A-10))), the “Biological activity compared with natural GRF(1-44)-NH2” value is reported as “identical to the natural GRF(1-44)-NH2”.
